# Results taken from ChEMBL document CHEMBL1201862, “PubChem BioAssay data set” (2004).
#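 Assay format: 96-well plates, 48-hour exposure. GI50 = concentration required for 50% inhibition of growth.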 Active and inactive are the calls of the source. Rule as the data show it: active = GI50 up to about 1.1 µM and inactive = higher.
# How the values were obtained:
# Test in all cases: growth of human tumour cells (NCI), 48 h
# [1] = test system: NCI-H226
# [2] = test system: BT-549
# [3] = test system: ACHN
# [4] = test system: NCI-H23
# [5] = test system: NCI-H460
# [6] = test system: SK-MEL-2
# [7] = test system: 786-0
# [8] = test system: SF-268
# [9] = test system: TK-10
# [10] = test system: HOP-62
# [11] = test system: MCF7
# [12] = test system: U-251
# [13] = test system: T47D
# [14] = test system: M14
# [15] = test system: OVCAR-4
# [16] = test system: SF-295
# [17] = test system: OVCAR-3
# [18] = test system: DU-145
# [19] = test system: SK-OV-3
# [20] = test system: UO-31
# [21] = test system: SW-620
# [22] = test system: SK-MEL-5
# [23] = test system: EKVX
# [24] = test system: RPMI-8226
# [25] = test system: MDA-MB-435
# [26] = test system: NCI-H522
# [27] = test system: HCT-116
# [28] = test system: PC-3
# [29] = test system: LOX IMVI
# [30] = test system: COLO 205
# [31] = test system: HOP-92
# [32] = test system: SN12C
# [33] = test system: UACC-62
# [34] = test system: CAKI-1
# [35] = test system: SNB-19
# [36] = test system: HCC 2998
# [37] = test system: HT-29
# [38] = test system: OVCAR-8
# [39] = test system: HCT-15
# [40] = test system: UACC-257
# [41] = test system: MDA-N
# [42] = test system: IGROV-1
# [43] = test system: NCI/ADR-RES
# [44] = test system: CCRF-CEM
# [45] = test system: A498
# [46] = test system: KM12
# [47] = test system: HL-60
# [48] = test system: Hs-578T
# [49] = test system: Malme-3M
# [50] = test system: SF-539
# [51] = test system: MDA-MB-231
# [52] = test system: A549
# [53] = test system: RXF 393
# [54] = test system: K562
# [55] = test system: SNB-75
# [56] = test system: OVCAR-5
# [57] = test system: MOLT-4
# [58] = test system: SR
# [59] = test system: SK-MEL-28
structure (smiles),measurement,setting,value
COc1cc2c(c(OC)c1O)-c1ccc(OC)c(=O)cc1[C@@H](NC(=O)C(F)(F)F)CC2,GI50,[1],0.391 µM (active)
same,GI50,[2],1.98 µM (inactive)
same,GI50,[3],0.745 µM (active)
same,GI50,[4],0.0809 µM (active)
same,GI50,[5],0.207 µM (active)
same,GI50,[6],0.0282 µM (active)
same,GI50,[7],0.327 µM (active)
same,GI50,[8],0.173 µM (active)
same,GI50,[9],> 100 µM (inactive)
same,GI50,[10],0.192 µM (active)
same,GI50,[11],0.0441 µM (active)
same,GI50,[12],0.324 µM (active)
same,GI50,[13],> 100 µM (inactive)
same,GI50,[14],0.0634 µM (active)
same,GI50,[15],> 26.1 µM (inactive)
same,GI50,[16],0.392 µM (active)
same,GI50,[17],0.0307 µM (active)
same,GI50,[18],0.361 µM (active)
same,GI50,[19],0.191 µM (active)
same,GI50,[20],6.87 µM (inactive)
same,GI50,[21],0.0376 µM (active)
same,GI50,[22],0.0242 µM (active)
same,GI50,[23],1.53 µM (inactive)
same,GI50,[24],0.0252 µM (active)
same,GI50,[25],0.0206 µM (active)
same,GI50,[26],0.0235 µM (active)
same,GI50,[27],0.0474 µM (active)
same,GI50,[28],0.0706 µM (active)
same,GI50,[29],0.163 µM (active)
same,GI50,[30],0.0352 µM (active)
same,GI50,[31],0.111 µM (active)
same,GI50,[32],2.52 µM (inactive)
same,GI50,[33],0.0387 µM (active)
same,GI50,[34],0.405 µM (active)
same,GI50,[35],0.0975 µM (active)
same,GI50,[36],0.307 µM (active)
same,GI50,[37],0.0333 µM (active)
same,GI50,[38],0.243 µM (active)
same,GI50,[39],1.16 µM
same,GI50,[40],> 100 µM (inactive)
same,GI50,[41],0.0262 µM (active)
same,GI50,[42],0.229 µM (active)
same,GI50,[43],3.72 µM (inactive)
same,GI50,[44],0.0519 µM (active)
same,GI50,[45],0.327 µM (active)
same,GI50,[46],0.0482 µM (active)
same,GI50,[47],0.0217 µM (active)
same,GI50,[48],0.019 µM (active)
same,GI50,[49],0.0641 µM (active)
same,GI50,[50],0.0243 µM (active)
same,GI50,[51],0.0413 µM (active)
same,GI50,[52],0.472 µM (active)
CCOc1ccc(NC(=O)C(=O)Nn2c(N)nnc2N)cc1,GI50,[53],> 100 µM (inactive)
same,GI50,[1],> 100 µM (inactive)
same,GI50,[2],> 100 µM (inactive)
same,GI50,[3],> 100 µM (inactive)
same,GI50,[4],> 100 µM (inactive)
same,GI50,[5],> 100 µM (inactive)
same,GI50,[6],> 100 µM (inactive)
same,GI50,[7],> 100 µM (inactive)
same,GI50,[8],> 100 µM (inactive)
same,GI50,[9],> 100 µM (inactive)
same,GI50,[10],> 100 µM (inactive)
same,GI50,[11],> 100 µM (inactive)
same,GI50,[12],> 100 µM (inactive)
same,GI50,[13],> 100 µM (inactive)
same,GI50,[14],> 100 µM (inactive)
same,GI50,[15],> 100 µM (inactive)
same,GI50,[16],> 100 µM (inactive)
same,GI50,[17],> 100 µM (inactive)
same,GI50,[19],> 100 µM (inactive)
same,GI50,[20],> 100 µM (inactive)
same,GI50,[21],> 100 µM (inactive)
same,GI50,[54],> 100 µM (inactive)
same,GI50,[55],> 100 µM (inactive)
same,GI50,[22],> 100 µM (inactive)
same,GI50,[23],> 100 µM (inactive)
same,GI50,[24],> 100 µM (inactive)
same,GI50,[25],> 100 µM (inactive)
same,GI50,[26],> 100 µM (inactive)
same,GI50,[27],> 100 µM (inactive)
same,GI50,[28],> 100 µM (inactive)
same,GI50,[29],> 100 µM (inactive)
same,GI50,[31],> 100 µM (inactive)
same,GI50,[32],> 100 µM (inactive)
same,GI50,[33],> 100 µM (inactive)
same,GI50,[56],> 100 µM (inactive)
same,GI50,[34],> 100 µM (inactive)
same,GI50,[36],> 100 µM (inactive)
same,GI50,[57],> 100 µM (inactive)
same,GI50,[37],> 100 µM (inactive)
same,GI50,[38],> 100 µM (inactive)
same,GI50,[39],> 100 µM
same,GI50,[40],> 100 µM (inactive)
same,GI50,[41],> 100 µM (inactive)
same,GI50,[42],> 100 µM (inactive)
same,GI50,[43],> 100 µM (inactive)
same,GI50,[44],> 100 µM (inactive)
same,GI50,[45],> 100 µM (inactive)
same,GI50,[46],> 100 µM (inactive)
same,GI50,[58],> 100 µM (inactive)
same,GI50,[47],> 100 µM (inactive)
same,GI50,[48],> 100 µM (inactive)
same,GI50,[49],> 100 µM (inactive)
same,GI50,[50],> 100 µM (inactive)
same,GI50,[51],> 100 µM (inactive)
same,GI50,[52],> 100 µM (inactive)
same,GI50,[59],> 100 µM (inactive)
